From PubChem BioAssay AID330 (DTP/NCI, 2004)
Toxic doses and inconclusive results are not listed. Rule for the calls: active = survival T/C of 150% or more; inactive = T/C below 125% in these data.

Tested on: P388 leukemia ip, CD2F1 mice, survival T/C
Assay: NCI In Vivo Anticancer Drug Screen. Data for tumor model P388 Leukemia (intraperitoneal) in CD2F1 (CDF1) mice
Details: endpoint: median survival time, higher = longer survival
In short: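 Mice carrying the transplanted tumor received test compound or vehicle. Survival was recorded in each group, and the value is the treated-group measurement divided by that of the vehicle-treated control group.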

[1] = dose: 25.0 mg/kg/injection, schedule: Q01DX009 (ip), vehicle: other
[2] = dose: 50.0 mg/kg/injection, schedule: Q01DX009 (ip), vehicle: other
[3] = dose: 100.0 mg/kg/injection, schedule: Q01DX009 (ip), vehicle: other
[4] = dose: 200.0 mg/kg/injection, schedule: Q01DX009 (ip), vehicle: other
[5] = dose: 400.0 mg/kg/injection, schedule: Q01DX009 (ip), vehicle: other
[6] = dose: 50.0 mg/kg/injection, schedule: Q01DX005 (ip), vehicle: Klucel (hydroxypropylcellulose) (HPC)
[7] = dose: 100.0 mg/kg/injection, schedule: Q01DX005 (ip), vehicle: Klucel (hydroxypropylcellulose) (HPC)
[8] = dose: 200.0 mg/kg/injection, schedule: Q01DX005 (ip), vehicle: Klucel (hydroxypropylcellulose) (HPC)
[9] = dose: 60.0 mg/kg/injection, schedule: Q01DX005 (ip), vehicle: Klucel (hydroxypropylcellulose) (HPC)
[10] = dose: 120.0 mg/kg/injection, schedule: Q01DX005 (ip), vehicle: Klucel (hydroxypropylcellulose) (HPC)
[11] = dose: 240.0 mg/kg/injection, schedule: Q01DX005 (ip), vehicle: Klucel (hydroxypropylcellulose) (HPC)
[12] = dose: 50.0 mg/kg/injection, schedule: Q01DX005 (ip), vehicle: saline with Tween-80
[13] = dose: 100.0 mg/kg/injection, schedule: Q01DX005 (ip), vehicle: saline with Tween-80
[14] = dose: 200.0 mg/kg/injection, schedule: Q01DX005 (ip), vehicle: saline with Tween-80

Measured: T/C

C=CCOC(OCC=C)C(OCC=C)OCC=C
inactive: dose: 100.0 mg/kg/injection, schedule: Q01DX009 (ip), vehicle: saline 109 % of control | dose: 100.0 mg/kg/injection, schedule: Q04DX003 (ip), vehicle: saline 100 % of control | dose: 200.0 mg/kg/injection, schedule: Q01DX009 (ip), vehicle: saline 100 % of control | dose: 200.0 mg/kg/injection, schedule: Q04DX003 (ip), vehicle: saline 100 % of control | dose: 400.0 mg/kg/injection, schedule: Q01DX009 (ip), vehicle: saline 122 % of control | dose: 400.0 mg/kg/injection, schedule: Q04DX003 (ip), vehicle: saline 100 % of control

Cn1c(=S)[nH]c2sc3c(c2c1=O)CCCC3
inactive: dose: 120.0 mg/kg/injection, schedule: Q01DX005 (ip), vehicle: saline with Tween-80 97 % of control | dose: 240.0 mg/kg/injection, schedule: Q01DX005 (ip), vehicle: saline with Tween-80 96 % of control

COc1cc(Br)c(C(=O)Nc2ccccc2)cc1OC
inactive: [1] 97 % of control | [2] 97 % of control | [3] 91 % of control | [4] 97 % of control | [5] 97 % of control

Cc1nn(-c2ccccc2)c(=O)n2c(-n3c(C)nn(-c4ccccc4)c3=O)nnc12
inactive: dose: 100.0 mg/kg/injection, schedule: Q01DX001 (ip), vehicle: saline with Tween-80 102 % of control | dose: 200.0 mg/kg/injection, schedule: Q01DX001 (ip), vehicle: saline with Tween-80 105 % of control | dose: 400.0 mg/kg/injection, schedule: Q01DX001 (ip), vehicle: saline with Tween-80 99 % of control

O=C(NC1c2ccccc2Oc2ccccc21)c1ccccc1
inactive: dose: 12.5 mg/kg/injection, schedule: Q04DX003 (ip), vehicle: distilled water + Tween-80 93 % of control | dose: 25.0 mg/kg/injection, schedule: Q04DX003 (ip), vehicle: distilled water + Tween-80 92 % of control | dose: 50.0 mg/kg/injection, schedule: Q04DX003 (ip), vehicle: distilled water + Tween-80 93 % of control | dose: 100.0 mg/kg/injection, schedule: Q04DX003 (ip), vehicle: distilled water + Tween-80 93 % of control

Cc1cc(N/N=C/c2ccc([N+](=O)[O-])o2)c2cc3c(cc2n1)OCO3
inactive: [6] 91 % of control | [7] 98 % of control | [8] 96 % of control

CN1CCN(C)B1N=S(C)(C)=O
inactive: dose: 50.0 mg/kg/injection, schedule: Q01DX005 (ip), vehicle: olive oil, sesame oil, peanut oil 111 % of control | dose: 100.0 mg/kg/injection, schedule: Q01DX005 (ip), vehicle: olive oil, sesame oil, peanut oil 114 % of control

CC[n+]1c(-c2ccccc2)c2cc(N)ccc2c2ccc(N)cc21 (tested in a mixture with another compound)
inactive: dose: 5.0 mg/kg/injection, schedule: Q01DX005 (ip), vehicle: other 102 % of control | dose: 10.0 mg/kg/injection, schedule: Q01DX005 (ip), vehicle: other 112 % of control | dose: 20.0 mg/kg/injection, schedule: Q01DX005 (ip), vehicle: other 102 % of control | dose: 40.0 mg/kg/injection, schedule: Q01DX005 (ip), vehicle: other 109 % of control | dose: 80.0 mg/kg/injection, schedule: Q01DX005 (ip), vehicle: other 119 % of control

CC1=C(C)C2(C)S(=O)Nc3ccccc3C12C (configuration not stated)
inactive: [9] 99 % of control | [10] 99 % of control | [11] 87 % of control

N#CC1Oc2ccccc2N1C(=O)c1ccccc1 (configuration not stated)
inactive: [12] 101 % of control | [13] 102 % of control | [14] 90 % of control

O=C(O)C[CH2][Sn](=[O])[CH2]CC(=O)O
inactive: [6] 101 % of control | [7] 101 % of control | [8] 102 % of control

CC(C)(C)N1N=C2CCCC2[Si]1(C)C (configuration not stated)
inactive: dose: 25.0 mg/kg/injection, schedule: Q01DX005 (ip), vehicle: Klucel (hydroxypropylcellulose) (HPC) 105 % of control | [6] 102 % of control | [7] 102 % of control

COC(=O)C1Cc2cncn2C(=O)N1 (configuration not stated)
inactive: dose: 8.0 mg/kg/injection, schedule: Q01DX009 (ip), vehicle: water 108 % of control | dose: 16.0 mg/kg/injection, schedule: Q01DX009 (ip), vehicle: water 100 % of control | dose: 32.0 mg/kg/injection, schedule: Q01DX009 (ip), vehicle: water 103 % of control | dose: 64.0 mg/kg/injection, schedule: Q01DX009 (ip), vehicle: water 107 % of control

COc1ccc(C2CC(=O)c3c(O)cc(OC4OC(COC5OC(C)C(O)C(O)C5O)C(O)C(O)C4O)cc3O2)cc1O (configuration not stated)
inactive: [12] 94 % of control | [13] 100 % of control | [14] 92 % of control

CCOC(=O)CCCC(NC(=O)c1ccc(N2CCN(c3c(N)nc(N)nc3NC)CC2)cc1)C(=O)OCC (configuration not stated)
inactive: [9] 91 % of control | [10] 87 % of control | [11] 96 % of control

O=C(c1cc2c(cc1Br)OCO2)N1CCCc2ccccc21
inactive: [1] 100 % of control | [2] 97 % of control | [3] 102 % of control | [4] 97 % of control | [5] 93 % of control

Oc1ccccc1C=Nc1ccccc1N=Cc1ccccc1O.[Zn]
inactive: dose: 50.0 mg/kg/injection, schedule: Q01DX009 (ip), vehicle: Klucel (hydroxypropylcellulose) (HPC) 97 % of control | dose: 100.0 mg/kg/injection, schedule: Q01DX009 (ip), vehicle: Klucel (hydroxypropylcellulose) (HPC) 98 % of control | dose: 200.0 mg/kg/injection, schedule: Q01DX009 (ip), vehicle: Klucel (hydroxypropylcellulose) (HPC) 95 % of control

Cc1nc(-c2ccccc2)nc2c1nc(C(C)C)n2Nc1ccccc1
inactive: [12] 96 % of control | [13] 98 % of control

CC(=O)OCc1c(Cl)nc2n1CCS2
inactive: dose: 25.0 mg/kg/injection, schedule: Q01DX001 (ip), vehicle: Klucel (hydroxypropylcellulose) (HPC) 103 % of control | dose: 50.0 mg/kg/injection, schedule: Q01DX001 (ip), vehicle: Klucel (hydroxypropylcellulose) (HPC) 96 % of control | dose: 100.0 mg/kg/injection, schedule: Q01DX001 (ip), vehicle: Klucel (hydroxypropylcellulose) (HPC) 102 % of control

CCOc1ccc2c(c1)c(C)cc(C)[n+]2CC
inactive: dose: 6.25 mg/kg/injection, schedule: Q04DX003 (ip), vehicle: saline with Tween-80 97 % of control | dose: 12.5 mg/kg/injection, schedule: Q04DX003 (ip), vehicle: saline with Tween-80 99 % of control
